# Measured values: patent US6359176B1, “Cationic surfactants, process for producing the same and utilization thereof” (Matsumoto Yushi-Seiyaku Co., Ltd., priority 1999, dated 2002)
# Columns and labels:
# activated sludge = test: Biodegradability: degradation by microorganisms with degradation tester and closed system oxygen consumption meter; conditions: 14 days biodegradability test
# Description: The biodegradability of the derivatives was determined by checking the degree of degradation of those chemicals by microorganisms (procedures defined in Japanese domestic low for regulation of chemical substances and in OECD) with a degradation tester and closed system oxygen consumption meter. The test was continued for 14 days and the biodegradability data was calculated into percentage.
# The 100-% degradability in the testing means that whole of a test sample has been degraded into inorganic substances such as carbon dioxide.
# [1] = Determination of craft point (temperature at which 1 wt % surfactant dissolves clearly, visual inspection); assay type: physicochemical; conditions: 1 weight % aqueous solution in pure water
# Description: (§1) Determination of craft point, critical micelle concentration and surface tension
# (§2) An aqueous solution of 1 weight % of a surfactant (solution with pure water) was prepared and the craft point, at which a surfactant dissolves clearly, was determined with visual inspection. And the aqueous solution of several surfactants with varied concentration was prepared with pure water and their surface tension at 25° C. was determined.
# [2] = Determination of critical micelle concentration and surface tension of aqueous surfactant solutions; assay type: physicochemical; conditions: pure water, 25° C.; for Surface tension γ cmc (mN/m): at cmc
# Description: as §1, §2
SMILES,Effect on activated sludge (in words) (activated sludge),"Craft point (1 wt %, ° C.) [1] [°C]",Critical micelle concentration cmc [2] [mol/L],Surface tension γ cmc (mN/m) [2] [mN/m]
CCCCCCCCCCCCCCCC[N+](C)(C)C.[Br-] [Cetyl trimethyl ammonium bromide],inhibited the propagation of activated sludge,,,
CCCCCCCCCCCC(=O)OCC(O)C(O)C(O)C(O)C[N+](C)(C)C.[Cl-] (stereo not drawn) [Monolaurate derivative],,<0,0.0012,30.2
CCCCCCCCCCCCCC(=O)OCC(O)C(O)C(O)C(O)C[N+](C)(C)C.[I-] (stereo not drawn) [Monomyristate derivative],,<0,0.00034,34.2
CCCCCCCCCCCCCCCC(=O)OCC(O)C(O)C(O)C(O)C[N+](C)(C)C.[Cl-] (stereo not drawn) [Monopalmitate derivative],,33.5,,
CCCCCCCCCCCCCCCCCC(=O)OCC(O)C(O)C(O)C(O)C[N+](C)(C)C.[I-] (stereo not drawn) [Monostearate derivative],,40.5,,
